{
  "source": "patent US12187718B1",
  "about": "“1-cyclopropyl-6-fluoro-7-(4-((5-(4-methoxybenzylideneamino)-2-thioxo-1,3,4-thiadiazol-3(2H)-yl)methyl)piperazin-1-yl)-4-oxo-1,4-dihydroquinoline-3-carboxylic acid as an anti-inflammatory and anticancer compound” (KING FAISAL UNIVERSITY, priority 2023, dated 2025)",
  "key": {"[1]": {"biological_target": "Bovine Serum Albumin (Bos taurus, UniProt P02769)", "sequence (P02769 25-607)": "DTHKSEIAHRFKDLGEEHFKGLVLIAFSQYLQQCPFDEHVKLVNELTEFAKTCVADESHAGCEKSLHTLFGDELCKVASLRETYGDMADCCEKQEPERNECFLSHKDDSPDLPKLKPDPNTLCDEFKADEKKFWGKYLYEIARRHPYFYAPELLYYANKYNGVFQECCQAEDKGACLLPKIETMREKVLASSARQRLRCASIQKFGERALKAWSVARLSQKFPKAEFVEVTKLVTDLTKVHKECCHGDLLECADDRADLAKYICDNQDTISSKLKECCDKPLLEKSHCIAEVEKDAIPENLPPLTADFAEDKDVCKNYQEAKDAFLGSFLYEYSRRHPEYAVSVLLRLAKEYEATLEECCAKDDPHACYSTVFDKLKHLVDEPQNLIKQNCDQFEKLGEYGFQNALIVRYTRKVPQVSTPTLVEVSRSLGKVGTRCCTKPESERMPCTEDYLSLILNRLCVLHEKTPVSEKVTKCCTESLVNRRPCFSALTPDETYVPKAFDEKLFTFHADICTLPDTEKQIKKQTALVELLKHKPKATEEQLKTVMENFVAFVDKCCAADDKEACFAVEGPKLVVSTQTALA", "assay": "Bovine Serum Albumin Assay (BSA), inhibition of protein denaturation", "assay_type": "biochemical", "details": "BSA 0.4% w/v, pH 6.4, 72° C. for 10 minutes, 20-100 μg/mL, turbidity at 660 nm", "experimental": "In vitro-inflammatory activities of the tested samples were determined using a modified method of the BSA assay reported by Williams et al. BSA solution (0.4%, w/v) was prepared in Tris Buffered Saline. The pH was adjusted to 6.4 with glacial acetic acid. Different dilutions of 20, 40, 60, 80, and 100 μg/mL of the stock solutions were added to test tubes containing 1 mL of 0.4%, w/v BSA buffer solution. Both negative (solvent) and positive (aspirin) controls were assayed in a similar manner. The solutions were then heated in a water bath at 72° C. for 10 minutes and cooled for 20 minutes under laboratory conditions. The turbidity of the solutions (level of protein precipitation) was measured at 660 nm in Spectrophotometer (V-770 UV-Visible/NIR Spectrophotometer).\nThe percentage inhibition of precipitation (protein denaturation) was determined relative to the negative control using the following equation:\n[formula] % Anti-Denaturation Activity=% Inhibition of Protein Denaturation=% Anti-inflammatory Activity"}, "[2]": {"test_system": "human osteosarcoma cells (MG-63)", "assay": "Cytotoxicity by SRB assay, MG-63 cells", "assay_type": "cell-based", "details": "osteosarcoma (MG-63) cells, 72 h, 0.01 μM to 100 μM", "experimental": "(§1) The human prostate cancer cells (PC3) and human osteosarcoma cells (MG-63) were obtained from Nawah Scientific Inc. (Mokatam, Cairo, Egypt) and cultured in DMEM (Dulbecco's modified eagle's medium), Gibco, USA, supplemented with fetal bovine serum (FBS) at a concentration of 10% and 100 U/mL of penicillin and streptomycin (PS). The Cells were incubated at 37° C. in a humidified environment that contained 5% CO2.\n(§2) Cells were seeded in 96-well plates as aliquots of 100 μL cell suspension and incubated in a complete media for 24 h. afterward, cells were treated with N′-(1-naphthoyloxy)-2-(benzo[d]thiazol-2-yl)acetimidamide at diverse concentrations ranging from 0.01 μM to 100 μM for 72 h. Then, cells were fixed at 4° C. for one hour with 150 μL of 10% trichloroacetic acid (TCA). After washing the cells five times with distilled water, 70 μL of sulforhodamine (SRB) solution (0.4% w/v) was added and incubated for 10 min at room temperature in a dark place. […] Then, 150 μL of Tris pH 10.5 (10 mM) was added, and the absorbance was measured at 540 nm using a BMG LABTECH®-FLUOstar Omega microplate reader (Ortenberg, Germany). Half maximal inhibitory concentrations (IC50) values were calculated for each experiment using GraphPad Prism 6 software. […]\n(§3) The inhibition was calculated using the following equation: Inhibition %=100−Average Viability"}, "[3]": {"test_system": "human prostate cancer cells (PC3)", "assay": "Cytotoxicity by SRB assay, PC3 cells", "assay_type": "cell-based", "details": "androgen-independent metastatic human prostate cancer cells (PC3), 72 h, 0.01 μM to 100 μM", "experimental": "as §1, §2, §3"}},
  "data": [
    {"smiles": "COc1ccc(/C=N/c2nn(CN3CCN(c4cc5c(cc4F)c(=O)c(C(=O)O)cn5C4CC4)CC3)c(=S)s2)cc1", "note": "[1-cyclopropyl-6-fluoro-7-(4-((5-(4-methoxybenzylideneamino)-2-thioxo-1,3,4-thiadiazol-3(2H)-yl)methyl)piperazin-1-yl)-4-oxo-1,4-dihydroquinoline-3-carboxylic acid]", "values": [
      {"measurement": "in vitro anti-inflammatory activity (inhibition of protein denaturation)", "setting": "[1]", "value": "considerable anti-inflammatory effect"},
      {"measurement": "antiproliferative activity against MG-63 cells", "setting": "[2]", "value": "excellent antiproliferative activities"},
      {"measurement": "antiproliferative activity against PC3 cells", "setting": "[3]", "value": "excellent antiproliferative activities"}
    ]}
  ]
}
